Measurements taken from ChEMBL document CHEMBL5321219, “Selective degradation of cellular BRD3 and BRD4-L promoted by PROTAC molecules in six cancer cell lines” (Eur J Med Chem, 2023).
Activity calls are given as the source filed them. The calls are words filed in the database; no cut-off is given here.

Key:
[1] = target: T1, Protein cereblon/Bromodomain-containing protein 3 (Homo sapiens) (UniProt Q15059+Q96SW2); assay: PROTAC activity at CRBN/BRD3 in human MM1.S cells assessed as induction of protein degradation at 2 nM measured after 24 hrs by Western blot analysis; format: cell-based
[2] = system: MM1.S; assay: Antiproliferative activity against human MM1.S cells assessed as cell growth inhibition measured after 4 days by CellTitre-Glo assay; format: functional, cell-based; details: 96 h
[3] = target: T2, Bromodomain-containing protein 3 (Homo sapiens, UniProt Q15059); assay: Binding affinity to recombinant human BRD3 BD2 (306 to 417 residues) assessed as inhibition constant by fluorescence polarization binding assay
[4] = target: T2, Bromodomain-containing protein 3; assay: Binding affinity to recombinant human BRD3 BD1 (24 to 144 residues) assessed as inhibition constant by fluorescence polarization binding assay
[5] = system: MV4-11; assay: Antiproliferative activity against human MV4-11 cells assessed as cell growth inhibition measured after 3 days by CellTitre-Glo assay; format: functional, cell-based; details: MV4-11, 72 h
[6] = target: T3, Protein cereblon/Bromodomain-containing protein 4 (Homo sapiens) (UniProt O60885+Q96SW2); assay: PROTAC activity at CRBN/BRD4-L in human MM1.S cells assessed as induction of protein degradation at 2 nM measured after 24 hrs by Western blot analysis; format: cell-based
[7] = target: T3, Protein cereblon/Bromodomain-containing protein 4 (Homo sapiens); assay: PROTAC activity at CRBN/BRD4-L in human MM1.S cells assessed as induction of protein degradation at 2 to 10 nM measured after 24 hrs by Western blot analysis; format: cell-based; details: dose 2-10 nM
[8] = target: T3, Protein cereblon/Bromodomain-containing protein 4 (Homo sapiens); assay: PROTAC activity at CRBN/BRD4-S in human MM1.S cells assessed as induction of protein degradation at 2 to 10 nM measured after 24 hrs by Western blot analysis; format: cell-based; details: dose 2-10 nM
[9] = target: T1, Protein cereblon/Bromodomain-containing protein 3 (Homo sapiens); assay: PROTAC activity at CRBN/BRD3 in human MM1.S cells assessed as induction of protein degradation at 2 to 10 nM measured after 24 hrs by Western blot analysis; format: cell-based; details: dose 2-10 nM
[10] = target: Protein cereblon/Bromodomain-containing protein 2 (Homo sapiens) (UniProt P25440+Q96SW2); assay: PROTAC activity at CRBN/BRD2 in human MM1.S cells assessed as induction of protein degradation at 2 to 10 nM measured after 24 hrs by Western blot analysis; format: cell-based; details: dose 2-10 nM
[11] = system: Mus musculus; assay: In vivo PROTAC activity at CRBN/BRD4-L in SCID mouse xenografted with human MM1.S cells assessed as reduction in BRD4-L protein level in tumor at 100 mg/kg, po measured after 6 hrs by Western blot analysis; format: functional, organism-based
[12] = system: A549; assay: Antiproliferative activity against human A549 cells assessed as cell growth inhibition measured after 4 days by CCK-8 assay; format: functional, cell-based; details: A549, 96 h
[13] = system: MCF7; assay: Antiproliferative activity against human MCF7 cells assessed as cell growth inhibition measured after 4 days by CCK-8 assay; format: functional, cell-based; details: MCF7, 96 h
[14] = system: HGC-27; assay: Antiproliferative activity against human HGC-27 cells assessed as cell growth inhibition measured after 4 days by CCK-8 assay; format: functional, cell-based; details: HGC-27, 96 h
[15] = system: HepG2; assay: Antiproliferative activity against human HepG2 cells assessed as cell growth inhibition measured after 4 days by CCK-8 assay; format: functional, cell-based; details: HepG2, 96 h
[16] = system: HeLa; assay: Antiproliferative activity against human HeLa cells assessed as cell growth inhibition measured after 4 days by CCK-8 assay; format: functional, cell-based; details: 96 h

T3 sequence (Q96SW2 whole entry, looked up, other chains not shown): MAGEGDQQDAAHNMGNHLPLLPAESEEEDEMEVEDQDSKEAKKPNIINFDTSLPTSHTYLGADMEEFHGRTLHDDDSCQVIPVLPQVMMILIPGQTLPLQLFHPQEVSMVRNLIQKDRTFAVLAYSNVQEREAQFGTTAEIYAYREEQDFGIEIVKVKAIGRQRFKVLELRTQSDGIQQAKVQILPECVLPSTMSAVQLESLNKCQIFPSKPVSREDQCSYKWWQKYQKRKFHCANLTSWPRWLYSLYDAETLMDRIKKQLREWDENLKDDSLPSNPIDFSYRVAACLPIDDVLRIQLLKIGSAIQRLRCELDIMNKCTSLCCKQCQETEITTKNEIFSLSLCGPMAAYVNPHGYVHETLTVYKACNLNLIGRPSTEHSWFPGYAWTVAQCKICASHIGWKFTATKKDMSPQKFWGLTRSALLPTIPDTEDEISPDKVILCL
T2 sequence (Q15059 whole entry, the tested form may be a part): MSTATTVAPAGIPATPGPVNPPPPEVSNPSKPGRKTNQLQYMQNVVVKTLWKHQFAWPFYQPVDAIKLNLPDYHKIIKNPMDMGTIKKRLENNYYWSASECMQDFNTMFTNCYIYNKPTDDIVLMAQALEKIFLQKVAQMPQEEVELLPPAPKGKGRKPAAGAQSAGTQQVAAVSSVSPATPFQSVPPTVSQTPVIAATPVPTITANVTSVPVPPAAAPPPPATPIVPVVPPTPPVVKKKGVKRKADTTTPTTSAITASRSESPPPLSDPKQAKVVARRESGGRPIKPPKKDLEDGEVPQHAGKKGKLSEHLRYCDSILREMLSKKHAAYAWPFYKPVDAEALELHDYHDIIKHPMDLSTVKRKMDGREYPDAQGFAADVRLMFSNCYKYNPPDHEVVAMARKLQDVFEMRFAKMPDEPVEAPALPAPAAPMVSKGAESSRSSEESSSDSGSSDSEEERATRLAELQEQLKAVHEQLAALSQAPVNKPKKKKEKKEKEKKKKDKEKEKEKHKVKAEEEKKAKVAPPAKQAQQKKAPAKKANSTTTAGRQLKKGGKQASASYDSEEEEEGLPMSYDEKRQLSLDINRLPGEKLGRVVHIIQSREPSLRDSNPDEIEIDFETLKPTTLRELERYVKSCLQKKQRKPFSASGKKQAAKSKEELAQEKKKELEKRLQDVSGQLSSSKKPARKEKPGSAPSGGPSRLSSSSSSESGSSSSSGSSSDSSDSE
T1 sequence (Q15059 2-726 limits assumed): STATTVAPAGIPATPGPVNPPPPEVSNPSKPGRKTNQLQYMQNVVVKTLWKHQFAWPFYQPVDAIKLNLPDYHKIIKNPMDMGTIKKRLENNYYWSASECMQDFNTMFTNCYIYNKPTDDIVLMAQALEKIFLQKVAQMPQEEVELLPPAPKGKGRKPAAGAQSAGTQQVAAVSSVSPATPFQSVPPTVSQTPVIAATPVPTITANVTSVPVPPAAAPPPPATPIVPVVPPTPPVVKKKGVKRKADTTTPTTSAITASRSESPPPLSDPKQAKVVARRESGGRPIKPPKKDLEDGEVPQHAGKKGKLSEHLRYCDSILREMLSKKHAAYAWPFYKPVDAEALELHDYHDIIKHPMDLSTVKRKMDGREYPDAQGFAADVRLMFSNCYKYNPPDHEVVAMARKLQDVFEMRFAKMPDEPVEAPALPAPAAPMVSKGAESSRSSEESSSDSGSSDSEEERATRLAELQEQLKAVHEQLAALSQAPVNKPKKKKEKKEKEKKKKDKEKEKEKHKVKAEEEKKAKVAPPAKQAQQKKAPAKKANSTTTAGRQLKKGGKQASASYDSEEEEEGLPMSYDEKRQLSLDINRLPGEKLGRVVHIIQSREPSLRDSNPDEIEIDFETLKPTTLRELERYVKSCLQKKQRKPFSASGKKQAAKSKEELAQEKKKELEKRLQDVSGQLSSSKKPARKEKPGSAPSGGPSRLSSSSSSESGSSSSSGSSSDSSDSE
T1 sequence (Q96SW2 whole entry partner): as the sequence (Q96SW2 whole entry, looked up, other chains not shown) above
Sequence of Protein cereblon/Bromodomain-containing protein 2 (Homo sapiens) (P25440 whole entry, looked up): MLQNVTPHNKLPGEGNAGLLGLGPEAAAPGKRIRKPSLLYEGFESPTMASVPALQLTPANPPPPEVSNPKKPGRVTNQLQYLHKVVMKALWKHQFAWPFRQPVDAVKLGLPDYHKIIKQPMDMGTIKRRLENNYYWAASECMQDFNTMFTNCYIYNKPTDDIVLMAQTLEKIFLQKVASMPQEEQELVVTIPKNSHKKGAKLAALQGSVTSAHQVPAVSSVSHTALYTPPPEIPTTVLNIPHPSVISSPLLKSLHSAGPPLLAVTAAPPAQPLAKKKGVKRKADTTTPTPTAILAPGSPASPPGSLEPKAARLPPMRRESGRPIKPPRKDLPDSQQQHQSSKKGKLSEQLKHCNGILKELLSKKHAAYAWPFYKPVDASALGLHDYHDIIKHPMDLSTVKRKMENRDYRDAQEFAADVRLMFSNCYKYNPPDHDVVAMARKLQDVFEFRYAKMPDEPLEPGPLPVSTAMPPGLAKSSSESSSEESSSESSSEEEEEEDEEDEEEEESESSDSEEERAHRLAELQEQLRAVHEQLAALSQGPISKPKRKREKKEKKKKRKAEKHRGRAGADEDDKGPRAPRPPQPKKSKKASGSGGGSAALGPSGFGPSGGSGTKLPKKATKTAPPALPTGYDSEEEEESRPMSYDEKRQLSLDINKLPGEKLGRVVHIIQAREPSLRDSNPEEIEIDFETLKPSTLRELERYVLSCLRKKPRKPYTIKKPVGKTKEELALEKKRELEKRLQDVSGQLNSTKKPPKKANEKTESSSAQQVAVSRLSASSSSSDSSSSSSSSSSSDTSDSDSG
Sequence of Protein cereblon/Bromodomain-containing protein 2 (Homo sapiens) (Q96SW2 whole entry, looked up): as the sequence (Q96SW2 whole entry, looked up, other chains not shown) above

SMILES | Activity [1] | IC50 [2] [nM] | Ki [3] [nM] | Ki [4] [nM] | IC50 [5] [nM] | Activity [6] | Activity [7] | Activity [8] | Activity [9] | Activity [10] | IC50 [12] [nM] | IC50 [13] [nM] | IC50 [15] [nM] | IC50 [16] [nM] | Activity [11] | IC50 [14] [nM]
Cc1nnc2n1-c1ccc(-c3ccc(CNCCCCCCCc4cccc5c4CN(C4CCC(=O)NC4=O)C5=O)cc3)cc1C(Nc1ccc(Cl)cc1)CC2 (stereo not drawn) | Active | 27.3 | 2.26 | 7.94 | 0.76 | Active | – | – | – | – | – | – | – | – | – | –
Cc1nnc2n1-c1ccc(-c3ccc(CNCCCCCCc4cccc5c4CN(C4CCC(=O)NC4=O)C5=O)cc3)cc1C(Nc1ccc(Cl)cc1)CC2 (stereo not drawn) | Active | 31.4 | 2.16 | 6.73 | 0.4 | Active | – | – | – | – | – | – | – | – | – | –
Cc1nnc2n1-c1ccc(-c3cnn(CC(=O)NCCCC#Cc4cccc5c4CN(C4CCC(=O)NC4=O)C5=O)c3)cc1C(Nc1ccc(Cl)cc1)CC2 (stereo not drawn) | – | 8190 | 4.96 | 37.8 | 2920 | – | inactive | inactive | inactive | inactive | – | – | – | – | – | –
Cc1nnc2n1-c1ccc(-c3cnn(C)c3)cc1[C@H](Nc1ccc(Cl)cc1)CC2 | – | 2320 | – | – | 270 | – | – | – | – | – | – | – | – | – | Active | –
Cc1nnc2n1-c1ccc(-c3ccc(CNCCCCc4cccc5c4CN(C4CCC(=O)N(C)C4=O)C5=O)cc3)cc1C(Nc1ccc(Cl)cc1)CC2 (stereo not drawn) | – | 2640 | 2.24 | 13.1 | 593 | – | – | – | – | – | 8480 | 4840 | 7560 | 3230 | – | 6000

The next lines start with results.

Activity [1] | IC50 [2] [nM] | Ki [3] [nM] | Ki [4] [nM] | IC50 [5] [nM] | Activity [6] | Activity [7] | Activity [8] | Activity [9] | Activity [10] | IC50 [12] [nM] | IC50 [13] [nM] | IC50 [15] [nM] | IC50 [16] [nM] | SMILES | Activity [11] | IC50 [14] [nM]
– | 3790 | 47.2 | 267 | 1220 | – | – | – | – | – | – | – | – | – | CNCc1ccc(-c2ccc3c(c2)C(Nc2ccc(Cl)cc2)CCc2nnc(C)n2-3)cc1 (stereo not drawn) | – | –
– | 1590 | 6.29 | 32.9 | 178 | – | inactive | inactive | inactive | inactive | – | – | – | – | Cc1nnc2n1-c1ccc(-c3cnn(CC(=O)NCCCCCC#Cc4cccc5c4CN(C4CCC(=O)NC4=O)C5=O)c3)cc1C(Nc1ccc(Cl)cc1)CC2 (stereo not drawn) | – | –
– | 2620 | 4.81 | 24.6 | 690 | – | – | – | – | – | – | – | – | – | Cc1nnc2n1-c1ccc(-c3ccc(CNCC#Cc4cccc5c4CN(C4CCC(=O)NC4=O)C5=O)cc3)cc1C(Nc1ccc(Cl)cc1)CC2 (stereo not drawn) | – | –
